Test results as given in publication PMC6421026, “Interaction of Anticancer Drugs with Human Organic Anion Transporter hOAT4” (Journal of Oncology, 2019).
Counter-ions that a name gives are not always drawn.

Tests used:
[1] = molecular target: T1, human organic anion transporter 4 (hOAT4) (Homo sapiens, UniProt Q9NSA0); test: inhibition of [3H]-estrone sulfate uptake in stable hOAT4-expressing COS-7 cells, Dixon plot (IC50 […]); trans-inhibition; format: cell-based
T1 construct: gene SLC22A11
T1 sequence (Q9NSA0 1-550): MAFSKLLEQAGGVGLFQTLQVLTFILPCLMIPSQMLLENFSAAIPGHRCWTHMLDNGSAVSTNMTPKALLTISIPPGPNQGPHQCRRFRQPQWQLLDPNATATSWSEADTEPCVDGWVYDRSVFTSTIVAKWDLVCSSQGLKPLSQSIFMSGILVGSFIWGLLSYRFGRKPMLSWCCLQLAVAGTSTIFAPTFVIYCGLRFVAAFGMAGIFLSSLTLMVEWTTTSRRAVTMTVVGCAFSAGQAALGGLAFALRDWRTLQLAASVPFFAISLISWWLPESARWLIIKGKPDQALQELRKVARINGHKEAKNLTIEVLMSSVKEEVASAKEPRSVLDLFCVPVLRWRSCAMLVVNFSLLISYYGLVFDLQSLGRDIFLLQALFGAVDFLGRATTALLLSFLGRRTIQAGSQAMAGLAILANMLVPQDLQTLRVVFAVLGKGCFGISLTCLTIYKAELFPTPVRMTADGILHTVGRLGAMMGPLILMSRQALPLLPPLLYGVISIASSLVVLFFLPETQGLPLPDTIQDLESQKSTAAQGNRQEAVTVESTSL

[2] = molecular target: T1, human organic anion transporter 4 (hOAT4); test: inhibition of [3H]-estrone sulfate uptake in stable hOAT4-expressing COS-7 cells, Dixon plot (IC50 […]); format: cell-based

| Ki [1] | SMILES | Ki [2] |
| --- | --- | --- |
| 4.26 µM | CC(C)(C)c1nc(-c2cccc(NS(=O)(=O)c3c(F)cccc3F)c2F)c(-c2ccnc(N)n2)s1 [Dab, dabrafenib mesylate] |  |
|  | COc1cccc2c1C(=O)c1c(O)c3c(c(O)c1C2=O)C[C@@](O)(C(=O)CO)C[C@@H]3O[C@H]1C[C@H](N)[C@@H](O)[C@H](C)O1 [epirubicin hydrochloride] | 3 µM |
